Assay results published in ChEMBL document CHEMBL1201862, “PubChem BioAssay data set” (2004).
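Tested at 5 concentrations; 48 h exposure; 96-well plates; endpoints linearly interpolated, else capped at highest concentration. GI50 is the concentration that inhibits growth by half.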 Activity calls are given as the source filed them. No stated cut-off is given here; in the data, active = GI50 up to about 1.1 µM and inactive = higher.

Assays:
Test in all cases: NCI-60 cell line screen, 48 h
MDA-N = system: MDA-N
NCI-H460 = system: NCI-H460
SNB-75 = system: SNB-75
OVCAR-5 = system: OVCAR-5
SN12C = system: SN12C
MDA-MB-231 = system: MDA-MB-231
Hs-578T = system: Hs-578T
HOP-92 = system: HOP-92
LOX IMVI = system: LOX IMVI
CAKI-1 = system: CAKI-1
HL-60 = system: HL-60
CCRF-CEM = system: CCRF-CEM
NCI/ADR-RES = system: NCI/ADR-RES
HCT-15 = system: HCT-15
KM12 = system: KM12
TK-10 = system: TK-10
K562 = system: K562
BT-549 = system: BT-549
U-251 = system: U-251
SR = system: SR
NCI-H226 = system: NCI-H226
EKVX = system: EKVX
COLO 205 = system: COLO 205
M14 = system: M14
SW-620 = system: SW-620
SF-268 = system: SF-268
OVCAR-3 = system: OVCAR-3
SNB-19 = system: SNB-19
SK-MEL-28 = system: SK-MEL-28
MCF7 = system: MCF7
A498 = system: A498
SF-295 = system: SF-295
DU-145 = system: DU-145
NCI-H522 = system: NCI-H522
UACC-62 = system: UACC-62
OVCAR-4 = system: OVCAR-4
SK-OV-3 = system: SK-OV-3
RXF 393 = system: RXF 393
SK-MEL-2 = system: SK-MEL-2
IGROV-1 = system: IGROV-1
SK-MEL-5 = system: SK-MEL-5
MOLT-4 = system: MOLT-4
SF-539 = system: SF-539
A549 = system: A549
ACHN = system: ACHN
786-0 = system: 786-0
HOP-62 = system: HOP-62
PC-3 = system: PC-3
HCT-116 = system: HCT-116
T47D = system: T47D
HCC 2998 = system: HCC 2998
NCI-H23 = system: NCI-H23
OVCAR-8 = system: OVCAR-8
MDA-MB-435 = system: MDA-MB-435
RPMI-8226 = system: RPMI-8226
Malme-3M = system: Malme-3M
UO-31 = system: UO-31
UACC-257 = system: UACC-257
HT-29 = system: HT-29

## O=C1C(Cl)=C(N2CCN(c3ccccn3)CC2)C(=O)c2ncccc21
MDA-N
  GI50: 1.76 µM (inactive)
NCI-H460
  GI50: 3.05 µM (inactive)
SNB-75
  GI50: 6.21 µM (inactive)
OVCAR-5
  GI50: 7.87 µM (inactive)
SN12C
  GI50: 2.61 µM (inactive)
MDA-MB-231
  GI50: 1.69 µM (inactive)
Hs-578T
  GI50: 2.49 µM (inactive)
HOP-92
  GI50: 1.88 µM (inactive)
LOX IMVI
  GI50: 1.61 µM (inactive)
CAKI-1
  GI50: 2.13 µM (inactive)
HL-60
  GI50: 0.668 µM (active)
CCRF-CEM
  GI50: 745 nM (active)
NCI/ADR-RES
  GI50: 2.33 µM (inactive)
HCT-15
  GI50: 1660 nM
KM12
  GI50: 3.53 µM (inactive)
TK-10
  GI50: 3.97 µM (inactive)
K562
  GI50: 1.33 µM (inactive)
BT-549
  GI50: 1.79 µM (inactive)
U-251
  GI50: 4.38 µM (inactive)
SR
  GI50: 0.757 µM (active)
NCI-H226
  GI50: 5.68 µM (inactive)
EKVX
  GI50: 11.9 µM (inactive)
COLO 205
  GI50: 1.84 µM (inactive)
M14
  GI50: 1.6 µM (inactive)
SW-620
  GI50: 2.03 µM (inactive)
SF-268
  GI50: 2.74 µM (inactive)
OVCAR-3
  GI50: 1.69 µM (inactive)
SNB-19
  GI50: 12.5 µM (inactive)
SK-MEL-28
  GI50: 2.24 µM (inactive)
MCF7
  GI50: 1.67 µM (inactive)
A498
  GI50: 11.3 µM (inactive)
SF-295
  GI50: 5.69 µM (inactive)
DU-145
  GI50: 11.8 µM (inactive)
NCI-H522
  GI50: 1.67 µM (inactive)
UACC-62
  GI50: 2.45 µM (inactive)
OVCAR-4
  GI50: 1.87 µM (inactive)
SK-OV-3
  GI50: 7 µM (inactive)
RXF 393
  GI50: 2.17 µM (inactive)
SK-MEL-2
  GI50: 1.87 µM (inactive)
IGROV-1
  GI50: 2.64 µM (inactive)
SK-MEL-5
  GI50: 2 µM (inactive)
MOLT-4
  GI50: 1.38 µM (inactive)
SF-539
  GI50: 2.05 µM (inactive)
A549
  GI50: 6.56 µM (inactive)
ACHN
  GI50: 2.33 µM (inactive)
786-0
  GI50: 1.63 µM (inactive)
HOP-62
  GI50: 11.9 µM (inactive)
PC-3
  GI50: 2.8 µM (inactive)
HCT-116
  GI50: 1.74 µM (inactive)
T47D
  GI50: 1.81 µM (inactive)
HCC 2998
  GI50: 16.7 µM (inactive)
NCI-H23
  GI50: 1.89 µM (inactive)
OVCAR-8
  GI50: 1.32 µM (inactive)
MDA-MB-435
  GI50: 1.69 µM (inactive)
RPMI-8226
  GI50: 2 µM (inactive)
Malme-3M
  GI50: 1.75 µM (inactive)
UO-31
  GI50: 1.77 µM (inactive)
UACC-257
  GI50: 1.7 µM (inactive)
HT-29
  GI50: 3.13 µM (inactive)

## C[C@H]1C=C2[C@@H]3CC(C)(C(=O)O)CC[C@]3(C)CC[C@]2(C)[C@]2(C)CC[C@H]3C(C)(C)[C@@H](OC(=O)c4cccc5c(=O)c6ccccc6[nH]c45)CC[C@]3(C)[C@@H]12 (some centres not stated)
MDA-N
  GI50: 59.8 µM (inactive)
NCI-H460
  GI50: 41 µM (inactive)
SNB-75
  GI50: > 100 µM (inactive)
OVCAR-5
  GI50: > 100 µM (inactive)
SN12C
  GI50: > 100 µM (inactive)
MDA-MB-231
  GI50: > 100 µM (inactive)
Hs-578T
  GI50: > 100 µM (inactive)
HOP-92
  GI50: > 100 µM (inactive)
LOX IMVI
  GI50: 57 µM (inactive)
CAKI-1
  GI50: > 100 µM (inactive)
HL-60
  GI50: 38.4 µM (inactive)
CCRF-CEM
  GI50: 38000 nM (inactive)
NCI/ADR-RES
  GI50: 54.6 µM (inactive)
HCT-15
  GI50: > 100000 nM
KM12
  GI50: 37.2 µM (inactive)
TK-10
  GI50: > 100 µM (inactive)
K562
  GI50: 54.5 µM (inactive)
BT-549
  GI50: 47.8 µM (inactive)
U-251
  GI50: 81.5 µM (inactive)
SR
  GI50: 66.8 µM (inactive)
NCI-H226
  GI50: 24 µM (inactive)
EKVX
  GI50: > 100 µM (inactive)
COLO 205
  GI50: 58.1 µM (inactive)
M14
  GI50: 61 µM (inactive)
SW-620
  GI50: > 100 µM (inactive)
SF-268
  GI50: > 100 µM (inactive)
OVCAR-3
  GI50: > 100 µM (inactive)
SNB-19
  GI50: > 100 µM (inactive)
SK-MEL-28
  GI50: 53.3 µM (inactive)
MCF7
  GI50: 40 µM (inactive)
A498
  GI50: 79.1 µM (inactive)
SF-295
  GI50: > 100 µM (inactive)
DU-145
  GI50: 67.5 µM (inactive)
NCI-H522
  GI50: 28.8 µM (inactive)
UACC-62
  GI50: 43.3 µM (inactive)
OVCAR-4
  GI50: 80.4 µM (inactive)
SK-OV-3
  GI50: > 100 µM (inactive)
RXF 393
  GI50: > 100 µM (inactive)
SK-MEL-2
  GI50: > 100 µM (inactive)
IGROV-1
  GI50: > 100 µM (inactive)
SK-MEL-5
  GI50: 34.4 µM (inactive)
MOLT-4
  GI50: > 100 µM (inactive)
SF-539
  GI50: > 100 µM (inactive)
A549
  GI50: 57.5 µM (inactive)
ACHN
  GI50: 67.3 µM (inactive)
786-0
  GI50: > 100 µM (inactive)
HOP-62
  GI50: > 100 µM (inactive)
PC-3
  GI50: 38.2 µM (inactive)
HCT-116
  GI50: 89.7 µM (inactive)
T47D
  GI50: 26.9 µM (inactive)
HCC 2998
  GI50: 88.7 µM (inactive)
NCI-H23
  GI50: 44.3 µM (inactive)
OVCAR-8
  GI50: 41.7 µM (inactive)
MDA-MB-435
  GI50: 41.8 µM (inactive)
RPMI-8226
  GI50: 43 µM (inactive)
Malme-3M
  GI50: 66.8 µM (inactive)
UO-31
  GI50: 70 µM (inactive)
UACC-257
  GI50: 29.7 µM (inactive)
HT-29
  GI50: > 100 µM (inactive)

## COc1ccc2c3c1OC1C(=O)C=CC4(O)C(C2)NCC[C@@]314 (some centres not stated)
MDA-N
  GI50: 1.26 µM (inactive)
NCI-H460
  GI50: 3.37 µM (inactive)
SNB-75
  GI50: 1.25 µM (inactive)
OVCAR-5
  GI50: 2.46 µM (inactive)
SN12C
  GI50: 1.51 µM (inactive)
MDA-MB-231
  GI50: 2.95 µM (inactive)
Hs-578T
  GI50: 2.19 µM (inactive)
HOP-92
  GI50: 5.26 µM (inactive)
LOX IMVI
  GI50: 1.91 µM (inactive)
CAKI-1
  GI50: 2.13 µM (inactive)
HL-60
  GI50: 1.8 µM (inactive)
CCRF-CEM
  GI50: 574 nM (active)
NCI/ADR-RES
  GI50: 4 µM (inactive)
HCT-15
  GI50: 2110 nM
KM12
  GI50: 2.84 µM (inactive)
TK-10
  GI50: 1.68 µM (inactive)
K562
  GI50: 2.51 µM (inactive)
BT-549
  GI50: 1.95 µM (inactive)
U-251
  GI50: 2.13 µM (inactive)
SR
  GI50: 1.76 µM (inactive)
NCI-H226
  GI50: 8.75 µM (inactive)
EKVX
  GI50: 2.3 µM (inactive)
COLO 205
  GI50: 1.44 µM (inactive)
M14
  GI50: 2.3 µM (inactive)
SW-620
  GI50: 1.11 µM (active)
SF-268
  GI50: 2.07 µM (inactive)
OVCAR-3
  GI50: 1.52 µM (inactive)
SNB-19
  GI50: 5.55 µM (inactive)
SK-MEL-28
  GI50: 2.92 µM (inactive)
MCF7
  GI50: 1.98 µM (inactive)
A498
  GI50: 3.29 µM (inactive)
SF-295
  GI50: 3.69 µM (inactive)
DU-145
  GI50: 3.24 µM (inactive)
NCI-H522
  GI50: 0.556 µM (active)
UACC-62
  GI50: 3.44 µM (inactive)
OVCAR-4
  GI50: 2.62 µM (inactive)
SK-OV-3
  GI50: 3.18 µM (inactive)
RXF 393
  GI50: 1.39 µM (inactive)
SK-MEL-2
  GI50: 2.4 µM (inactive)
IGROV-1
  GI50: 5.71 µM (inactive)
SK-MEL-5
  GI50: 4.16 µM (inactive)
MOLT-4
  GI50: 1.28 µM (inactive)
SF-539
  GI50: 1.55 µM (inactive)
A549
  GI50: 4.61 µM (inactive)
ACHN
  GI50: 2.23 µM (inactive)
786-0
  GI50: 1.58 µM (inactive)
HOP-62
  GI50: 2.39 µM (inactive)
PC-3
  GI50: 3.3 µM (inactive)
HCT-116
  GI50: 1.73 µM (inactive)
T47D
  GI50: 0.968 µM (active)
HCC 2998
  GI50: 2.1 µM (inactive)
NCI-H23
  GI50: 2.03 µM (inactive)
OVCAR-8
  GI50: 1.69 µM (inactive)
MDA-MB-435
  GI50: 1.4 µM (inactive)
RPMI-8226
  GI50: 1.12 µM (inactive)
Malme-3M
  GI50: 0.964 µM (active)
UO-31
  GI50: 2.1 µM (inactive)
UACC-257
  GI50: 1.77 µM (inactive)
HT-29
  GI50: 2.54 µM (inactive)
